Patent US11655235B2, “Pyrrolidine and piperidine compounds” (YUHAN CORPORATION, priority 2019, dated 2023)

Tests used:
Format in all cases: biochemical
Recombinant human FAP = biological target: T1, Recombinant human FAP (Homo sapiens, UniProt Q12884); assay: FAP inhibition, fluorogenic substrate Z-Gly-Pro-AMC; conditions: recombinant human FAP, substrate Z-Gly-Pro-AMC
T1 construct: purchased R&D systems
T1 sequence (Q12884 1-760): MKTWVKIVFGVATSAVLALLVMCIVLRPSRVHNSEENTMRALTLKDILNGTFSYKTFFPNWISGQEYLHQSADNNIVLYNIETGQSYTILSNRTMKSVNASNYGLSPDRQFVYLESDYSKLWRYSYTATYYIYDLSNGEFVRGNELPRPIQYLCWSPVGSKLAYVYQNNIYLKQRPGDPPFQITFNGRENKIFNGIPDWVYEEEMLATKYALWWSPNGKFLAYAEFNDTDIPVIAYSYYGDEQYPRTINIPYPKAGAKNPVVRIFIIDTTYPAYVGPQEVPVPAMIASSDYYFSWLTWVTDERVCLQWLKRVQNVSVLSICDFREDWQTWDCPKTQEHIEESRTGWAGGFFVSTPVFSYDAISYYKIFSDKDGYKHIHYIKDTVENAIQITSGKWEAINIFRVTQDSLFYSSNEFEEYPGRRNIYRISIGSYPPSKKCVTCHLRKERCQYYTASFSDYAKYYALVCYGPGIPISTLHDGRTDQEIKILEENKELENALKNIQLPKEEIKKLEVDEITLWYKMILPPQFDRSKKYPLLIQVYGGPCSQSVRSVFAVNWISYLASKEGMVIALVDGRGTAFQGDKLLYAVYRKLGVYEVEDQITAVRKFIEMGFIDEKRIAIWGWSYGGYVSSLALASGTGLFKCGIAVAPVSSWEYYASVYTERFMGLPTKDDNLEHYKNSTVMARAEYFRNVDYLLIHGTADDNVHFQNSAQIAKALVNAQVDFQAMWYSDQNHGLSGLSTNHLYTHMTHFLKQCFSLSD
Summary of the method: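 Eight-point compound dilutions (≤0.1% DMSO) were incubated at 25° C with 10 ng recombinant human FAP in Tris pH 7.5/1 M NaCl/BSA buffer and Z-Gly-Pro-AMC. Inhibition was taken as % drop in fluorescence rate (380/460 nm) against uninhibited control; IC50 came from a four-parameter logistic fit.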

recombinant human DPP7 = biological target: T2, recombinant human DPP7 (Homo sapiens, UniProt Q9UHL4); assay: DPP7 inhibition, fluorogenic substrate Lys-Pro-AMC; conditions: recombinant human DPP7
T2 construct: purchased R&D Systems
Summary of the method: (§1)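 Inhibitors are titrated in an 8-point series into the enzyme's assay buffer (DMSO no more than 0.5%). Substrate cleavage at 25 °C is followed by fluorescence, excitation 380 nm and emission 460 nm. IC50 values come from a four-variable logistic model.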

recombinant human DPP8 = biological target: T3, recombinant human DPP8 (Homo sapiens, UniProt Q6V1X1); assay: DPP8 inhibition, fluorogenic substrate Z-Ala-Pro-AMC; conditions: recombinant human DPP8
T3 construct: purchased PBS Bioscience
T3 sequence (Q6V1X1 whole entry): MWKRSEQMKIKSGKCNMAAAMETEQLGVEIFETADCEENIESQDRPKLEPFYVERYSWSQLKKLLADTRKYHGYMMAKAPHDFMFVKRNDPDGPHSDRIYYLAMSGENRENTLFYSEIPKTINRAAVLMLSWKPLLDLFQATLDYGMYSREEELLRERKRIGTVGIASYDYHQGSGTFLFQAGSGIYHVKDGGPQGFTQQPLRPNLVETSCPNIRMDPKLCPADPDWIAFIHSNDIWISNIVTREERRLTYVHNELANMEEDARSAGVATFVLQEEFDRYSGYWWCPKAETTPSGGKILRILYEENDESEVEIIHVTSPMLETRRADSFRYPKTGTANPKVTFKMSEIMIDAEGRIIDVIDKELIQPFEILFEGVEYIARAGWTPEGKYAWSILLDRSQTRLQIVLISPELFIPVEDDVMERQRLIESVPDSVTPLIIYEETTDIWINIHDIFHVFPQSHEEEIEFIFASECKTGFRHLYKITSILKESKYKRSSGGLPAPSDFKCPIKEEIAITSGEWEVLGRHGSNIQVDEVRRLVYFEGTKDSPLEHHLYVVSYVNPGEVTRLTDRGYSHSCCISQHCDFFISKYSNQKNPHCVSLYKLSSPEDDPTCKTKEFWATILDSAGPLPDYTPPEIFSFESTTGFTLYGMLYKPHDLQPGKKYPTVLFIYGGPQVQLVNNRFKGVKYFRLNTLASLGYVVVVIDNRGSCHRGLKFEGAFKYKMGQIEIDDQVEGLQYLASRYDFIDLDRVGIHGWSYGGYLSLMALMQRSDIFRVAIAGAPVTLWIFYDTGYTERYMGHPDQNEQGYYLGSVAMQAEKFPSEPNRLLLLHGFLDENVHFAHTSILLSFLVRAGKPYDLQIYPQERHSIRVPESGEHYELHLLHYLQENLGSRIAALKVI
Summary of the method: as §1

recombinant human DPP9 = biological target: T4, recombinant human DPP9 (Homo sapiens, UniProt Q86TI2); assay: DPP9 inhibition, fluorogenic substrate H-Gly-Pro-AMC; conditions: recombinant human DPP9
T4 construct: purchased R&D Systems
T4 sequence (Q86TI2 whole entry): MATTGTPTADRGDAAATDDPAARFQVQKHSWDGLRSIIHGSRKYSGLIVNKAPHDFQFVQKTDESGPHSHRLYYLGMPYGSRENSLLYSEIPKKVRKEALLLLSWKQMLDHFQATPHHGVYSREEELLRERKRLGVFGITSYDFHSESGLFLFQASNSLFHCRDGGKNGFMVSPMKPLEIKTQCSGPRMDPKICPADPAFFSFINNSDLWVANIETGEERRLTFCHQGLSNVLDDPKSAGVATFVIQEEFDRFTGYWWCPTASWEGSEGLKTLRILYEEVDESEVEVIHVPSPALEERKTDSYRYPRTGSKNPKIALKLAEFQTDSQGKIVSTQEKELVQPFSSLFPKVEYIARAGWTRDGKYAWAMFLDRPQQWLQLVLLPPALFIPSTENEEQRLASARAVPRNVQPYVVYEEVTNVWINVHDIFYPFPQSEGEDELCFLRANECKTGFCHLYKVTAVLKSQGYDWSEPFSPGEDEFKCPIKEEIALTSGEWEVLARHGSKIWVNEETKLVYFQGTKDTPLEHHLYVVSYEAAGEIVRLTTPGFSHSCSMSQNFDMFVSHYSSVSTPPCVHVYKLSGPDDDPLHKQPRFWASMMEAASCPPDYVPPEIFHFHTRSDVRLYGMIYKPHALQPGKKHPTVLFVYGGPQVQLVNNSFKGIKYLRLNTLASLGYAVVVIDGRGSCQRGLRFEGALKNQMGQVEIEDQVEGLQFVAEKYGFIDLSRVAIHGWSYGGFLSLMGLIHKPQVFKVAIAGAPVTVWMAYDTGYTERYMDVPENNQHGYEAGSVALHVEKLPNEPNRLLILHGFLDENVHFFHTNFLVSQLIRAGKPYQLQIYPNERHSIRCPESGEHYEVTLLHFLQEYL
Summary of the method: as §1

recombinant human PREP = biological target: T5, recombinant human PREP (Homo sapiens, UniProt P48147); assay: PREP inhibition, fluorogenic substrate Z-Gly-Pro-AMC; conditions: Inhibitory Activity (IC50, nM) PREP, recombinant human PREP
T5 construct: purchased R&D System
T5 sequence (P48147 1-710): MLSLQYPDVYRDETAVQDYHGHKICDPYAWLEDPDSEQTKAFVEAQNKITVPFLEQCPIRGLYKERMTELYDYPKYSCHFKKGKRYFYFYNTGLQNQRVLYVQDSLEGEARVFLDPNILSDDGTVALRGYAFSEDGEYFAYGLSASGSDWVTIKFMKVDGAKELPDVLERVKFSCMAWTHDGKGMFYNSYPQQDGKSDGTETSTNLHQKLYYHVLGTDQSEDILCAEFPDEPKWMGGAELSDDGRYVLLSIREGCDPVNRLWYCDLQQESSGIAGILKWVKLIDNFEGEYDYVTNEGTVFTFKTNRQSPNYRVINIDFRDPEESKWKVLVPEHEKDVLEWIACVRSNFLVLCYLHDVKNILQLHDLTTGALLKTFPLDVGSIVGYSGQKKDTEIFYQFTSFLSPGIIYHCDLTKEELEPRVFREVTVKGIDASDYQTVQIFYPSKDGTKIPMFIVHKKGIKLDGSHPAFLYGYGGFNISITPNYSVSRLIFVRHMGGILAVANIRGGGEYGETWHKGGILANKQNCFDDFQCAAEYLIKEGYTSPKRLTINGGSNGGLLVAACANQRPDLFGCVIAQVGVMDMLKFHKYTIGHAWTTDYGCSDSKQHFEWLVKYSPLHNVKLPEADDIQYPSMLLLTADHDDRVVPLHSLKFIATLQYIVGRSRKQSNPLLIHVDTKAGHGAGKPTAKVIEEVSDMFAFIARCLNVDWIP
Summary of the method: as §1

DPP4 = DPP4 (Homo sapiens, UniProt P27487); assay: DPP4 inhibition, fluorogenic substrate H-Gly-Pro-AMC; design: purchased R&D Systems; conditions: recombinant human DPP4
Sequence of DPP4 (P27487 whole entry): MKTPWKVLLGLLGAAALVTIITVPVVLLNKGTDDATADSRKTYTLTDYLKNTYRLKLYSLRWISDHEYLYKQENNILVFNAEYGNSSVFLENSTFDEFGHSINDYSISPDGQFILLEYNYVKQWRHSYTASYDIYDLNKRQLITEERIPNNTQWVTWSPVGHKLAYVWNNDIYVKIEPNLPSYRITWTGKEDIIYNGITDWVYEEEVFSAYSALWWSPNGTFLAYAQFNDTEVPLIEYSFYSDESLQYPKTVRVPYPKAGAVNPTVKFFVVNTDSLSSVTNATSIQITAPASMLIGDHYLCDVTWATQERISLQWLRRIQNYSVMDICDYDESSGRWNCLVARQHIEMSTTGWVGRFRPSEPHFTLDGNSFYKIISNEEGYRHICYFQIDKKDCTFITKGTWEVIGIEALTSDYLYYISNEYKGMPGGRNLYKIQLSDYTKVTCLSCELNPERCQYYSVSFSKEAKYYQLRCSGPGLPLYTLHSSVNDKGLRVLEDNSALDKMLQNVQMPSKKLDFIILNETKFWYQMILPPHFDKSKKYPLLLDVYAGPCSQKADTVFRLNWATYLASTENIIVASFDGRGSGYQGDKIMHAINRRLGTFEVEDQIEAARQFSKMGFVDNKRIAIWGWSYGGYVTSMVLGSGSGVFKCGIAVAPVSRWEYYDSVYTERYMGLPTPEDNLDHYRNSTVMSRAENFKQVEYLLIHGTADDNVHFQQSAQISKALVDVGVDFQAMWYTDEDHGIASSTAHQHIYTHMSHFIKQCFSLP

IC50 (Recombinant human FAP) [µM]	IC50 (recombinant human DPP7) [µM]	IC50 (recombinant human DPP8) [µM]	IC50 (recombinant human DPP9) [µM]	IC50 (recombinant human PREP) [nM]	IC50 (DPP4) [µM]	SMILES
0.0026	3.31	18.6	8.43	2470	1.27	Cc1ccc2ncccc2c1N[C@H]1CCN(CC(=O)N2C[C@@H](F)C[C@H]2C#N)C1 [Example 259, (2S,4S)-4-fluoro-1-[2-[(3S)-3-[(6-methyl-5-quinolyl)amino]pyrrolidin-1-yl]acetyl]pyrrolidine-2-carbonitrile]
0.0058	8.28	20.8	7.71	6500	0.741	COc1ccc2ncccc2c1N[C@H]1CCN(CC(=O)N2C[C@@H](F)C[C@H]2C#N)C1 [Example 260, (2S,4S)-4-fluoro-1-[2-[(3S)-3-[(6-methoxy-5-quinolyl)amino]pyrrolidin-1-yl]acetyl]pyrrolidine-2-carbonitrile]
0.002	6.57	20.8	9.42	3940	1.17	N#C[C@@H]1C[C@H](F)CN1C(=O)CN1CC[C@H](Nc2c(F)ccc3ncccc23)C1 [Example 261, (2S,4S)-4-fluoro-1-[2-[(3S)-3-[(6-fluoro-5-quinolyl)amino]pyrrolidin-1-yl]acetyl]pyrrolidine-2-carbonitrile]
0.0012	0.452	3.01	3.56	1850	1.36	Cc1ccc(N[C@H]2CCN(CC(=O)N3C[C@@H](F)C[C@H]3C#N)C2)c2cccnc12 [Example 262, (2S,4S)-4-fluoro-1-[2-[(3S)-3-[(8-methyl-5-quinolyl)amino]pyrrolidin-1-yl]acetyl]pyrrolidine-2-carbonitrile]
0.0008	1.13	> 100	5.42	1730	1.24	N#C[C@@H]1C[C@H](F)CN1C(=O)CN1CC[C@H](Nc2ccc(C(F)(F)F)c3ncccc23)C1 [Example 265, (2S,4S)-4-fluoro-1-[2-[(3S)-3-[[8-(trifluoromethyl)-5-quinolyl]amino]pyrrolidin-1-yl]acetyl]pyrrolidine-2-carbonitrile]
0.0012	0.812	7.18	4.92	2310	2.84	N#C[C@@H]1C[C@H](F)CN1C(=O)CN1CC[C@H](Nc2cc(F)cc3ncccc23)C1 [Example 269, (2S,4S)-4-fluoro-1-[2-[(3S)-3-[(7-fluoro-5-quinolyl)amino]pyrrolidin-1-yl]acetyl]pyrrolidine-2-carbonitrile]
0.0013	0.591	44	19.2	10900	> 10	N#C[C@@H]1CCCN1C(=O)CN1CC[C@H](Nc2ccnc3c(C(F)(F)F)cccc23)C1 [Example 270, (2S)-1-[2-[(3S)-3-[[8-(trifluoromethyl)-4-quinolyl]amino]pyrrolidin-1-yl]acetyl]pyrrolidine-2-carbonitrile]
0.0014	0.213	7.99	4.41	3740	3.79	N#C[C@@H]1C[C@H](F)CN1C(=O)CN1CC[C@H](Nc2ccnc3c(C(F)(F)F)cccc23)C1 [Example 271, (2S,4S)-4-fluoro-1-[2-[(3S)-3-[[8-(trifluoromethyl)-4-quinolyl]amino]pyrrolidin-1-yl]acetyl]pyrrolidine-2-carbonitrile]
0.0017	9.84	13.1	8.19	1410	> 10	COc1ccc2nccc(O[C@H]3CCN(CC(=O)N4C[C@@H](F)C[C@H]4C#N)C3)c2c1 [Example 299, (2S,4S)-4-fluoro-1-[2-[(3S)-3-[(6-methoxy-4-quinolyl)oxy]pyrrolidin-1-yl]acetyl]pyrrolidine-2-carbonitrile]
0.0019	2.93	17.8	12.1	4890	> 10	COc1cc2nccc(O[C@H]3CCN(CC(=O)N4C[C@@H](F)C[C@H]4C#N)C3)c2cc1OC [Example 300, (2S,4S)-4-fluoro-1-[2-[(3S)-3-[(6,7-dimethoxy-4-quinolyl)oxy]pyrrolidin-1-yl]acetyl]pyrrolidine-2-carbonitrile]
0.0695	1.56	> 100	> 100	36000	8.13	N#C[C@@H]1CCCN1C(=O)CN1CCC(NC(=O)c2cccc3cccnc23)CC1 [Example 301, N-[1-[2-oxo-2-[(2S)-2-cyanopyrrolidin-1-yl]ethyl]-4-piperidyl]quinoline-8-carboxamide]
0.0017	1.05	> 10	5.77	134	9.15	CN(c1ccc2ncccc2c1)C1CCN(CC(=O)N2C[C@@H](F)C[C@H]2C#N)CC1 [Example 315, (2S,4S)-4-fluoro-1-[2-[4-[methyl(6-quinolyl)amino]-1-piperidyl]acetyl]pyrrolidine-2-carbonitrile]
0.0031	1.87	> 100	8.2	500	> 10	CN(c1cnc2ccccc2c1)C1CCN(CC(=O)N2C[C@@H](F)C[C@H]2C#N)CC1 [Example 316, (2S,4S)-4-fluoro-1-[2-[4-[methyl(3-quinolyl)amino]-1-piperidyl]acetyl]pyrrolidine-2-carbonitrile]

SMILES	IC50 (Recombinant human FAP) [µM]	IC50 (recombinant human DPP7) [µM]	IC50 (recombinant human DPP8) [µM]	IC50 (recombinant human DPP9) [µM]	IC50 (recombinant human PREP) [nM]	IC50 (DPP4) [µM]
CN(c1ccc2ncccc2c1)C1CCN(CC(=O)N2CCC[C@H]2C#N)CC1 [Example 310, (2S)-1-[2-[4-[methyl(6-quinolyl)amino]-1-piperidyl]acetyl]pyrrolidine-2-carbonitrile]	0.0053	4.33	> 100	66.4	740	> 10
CN(c1ccc2cccnc2c1)C1CCN(CC(=O)N2CCC[C@H]2C#N)CC1 [Example 311, (2S)-1-[2-[4-[methyl(7-quinolyl)amino]-1-piperidyl]acetyl]pyrrolidine-2-carbonitrile]	0.014	2.49	> 100	96.9	4350	> 10
CN(c1cccc2cnccc12)C1CCN(CC(=O)N2CCC[C@H]2C#N)CC1 [Example 313, (2S)-1-[2-[4-[5-isoquinolyl(methyl)amino]-1-piperidyl]acetyl]pyrrolidine-2-carbonitrile]	0.0739	> 100	> 100	13.7	9360	> 10
CN(c1ccc2cnccc2c1)C1CCN(CC(=O)N2CCC[C@H]2C#N)CC1 [Example 314, (2S)-1-(2-(4-(isoquinolin-6-yl(methyl)amino)piperidin-1-yl)acetyl)pyrrolidine-2-carbonitrile]	0.0087	2.47	> 100	34.9	531	> 10
